Measured values as given in US20020052377A1, “Method for treating angina” (priority 2000, published 2002).
≈ marks a conversion by molar mass, not a printed value. Where two headings read alike, the source gives them in different places.

Columns and labels:
[1] = Peak and trough ranolazine plasma concentrations, IR regimens (Example 3); assay type: in vivo; details: human, oral
Method: In this Example, the safety and anti-ischemic effects of high plasma ranolazine levels in a large group of angina patients was evaluated and the duration of any effects during steady-state dosing with bid and tid regimens was assessed. In this Example, patients with chronic stable angina pectoris who were responsive to conventional antianginal drugs were treated with 3 ranolazine.2HCl dosing regimens: 267 mg tid, 400 mg bid and 400 mg tid IR Formulations of Example 1. Exercise testing parameters and ranolazine free base concentrations were determined at peak and trough plasma levels.
(§1) After each 1 week period, patients returned to the exercise laboratory in the morning, at least 1 hour after a light breakfast, for an ETT. This was designated the trough ETT; the trough ETTs were performed at the same time of day for each patient. After completing the trough ETT, the patient received the next scheduled blinded medication dose from the blister pack used that week. Another ETT was performed 1 hour after the administered dose. This was designated the peak ETT. Blood samples were obtained at trough (approximately 8 hours after dosing) and at peak (1 hour after dosing). Other standard laboratory tests were monitored regularly throughout the study.

[2] = test system: patients with stable angina; experiment: MARISA exercise testing (modified Bruce protocol), sustained release ranolazine; assay type: in vivo, human
Method: is the first study of sustained release ranolazine (SR) in stable angina. Methods: Patients withdrawn from other anti-anginal drugs with reproducible angina-limited exercise duration and ≧1 mm ST depression were randomized to Ran (500 mg bid, 1000 mg bit and 1500 mg bid) and matching placebo (Pbo) in a double-blind, four-period, Latin square crossover design. Exercise testing with a modified Bruce protocol was performed at both trough (12 hr after dosing) and peak (4 hr after dosing). Results: 49 centers in the USA, Czech Republic, Poland and Canada randomized 191 patients. 168 completed all 4 double-blind treatment periods; 7 more completed 3 of 4 periods.

[3] = test system: patients with chronic angina, with or without history of heart failure; experiment: MARISA exercise duration, patients with or without history of heart failure (HF); assay type: in vivo, human
Method: This Example evaluates the effectiveness of ranolazine (Ran) in human patients with chronic angina and a history of heart failure. The […] (Monotherapy Assessment of Ranolazine In Stable Angina) study randomized patients to Ran (500 mg, 1000 mg and 1500 mg bid) and placebo in a double-blind, 4 period, crossover design study. […] All patients performed a modified Bruce exercise test at the time of trough (morning) and peak (afternoon) drug levels on each treatment.

[4] = Solubility of ranolazine in aqueous solutions by pH; assay type: physicochemical
[5] = test system: patients with chronic stable angina pectoris; experiment: Safety, tolerability and hemodynamics, IR regimens (Example 3); assay type: in vivo, human
Method: as §1, with “study. Blood pressure (by cuff) and heart rate were monitored before all ETTs, during the ETT, during the last minute of each stage of the test, at onset angina, at the point of maximum exercise, and during recovery (every minute for 4 minutes, then every 5 minutes until values returned to baseline). Heart rates also was monitored continuously and standard 12-lead ECG recordings were done immediately before exercise with the patient standing on the treadmill, at the end of each stage of exercise, at the maximally tolerated exercise load, and at the termination of exercise.” for “study.”

[6] = Solution pH 7.59 (unbuffered water)

COc1ccccc1OCC(O)CN1CCN(CC(=O)Nc2c(C)cccc2C)CC1 (racemic) [Ranolazine, (±)-N-(2,6-dimethylphenyl)-4-[2-hydroxy-3-(2-methoxyphenoxy)propyl]-1-piperazine-acetamide]
concentration at 1 h ([1]; female, 267 mg, Females, IR 267 mg tid, read-out: Ranolazine Plasma Concentration, Peak, mean (SD)): 1590 ng/mL | concentration at 8 h ([1]; female, 267 mg, Females, IR 267 mg tid, read-out: Ranolazine Plasma Concentration, Trough, mean (SD)): 316 ng/mL | concentration at 1 h ([1]; female, 400 mg, Females, IR 400 mg bid, read-out: Ranolazine Plasma Concentration, Peak, mean (SD)): 2170 ng/mL | concentration at 8 h ([1]; female, 400 mg, Females, IR 400 mg bid, read-out: Ranolazine Plasma Concentration, Trough, mean (SD)): 235 ng/mL | concentration at 1 h ([1]; female, 400 mg, Females, IR 400 mg tid, read-out: Ranolazine Plasma Concentration, Peak, mean (SD)): 2650 ng/mL | concentration at 8 h ([1]; female, 400 mg, Females, IR 400 mg tid, read-out: Ranolazine Plasma Concentration, Trough, mean (SD)): 505 ng/mL | concentration at 1 h ([1]; 267 mg, All Patients, IR 267 mg tid, read-out: Ranolazine Plasma Concentration, Peak, mean (SD)): 1350 ng/mL | concentration at 8 h ([1]; 267 mg, All Patients, IR 267 mg tid, read-out: Ranolazine Plasma Concentration, Trough, mean (SD)): 316 ng/mL | concentration at 1 h ([1]; 400 mg, All Patients, IR 400 mg bid, read-out: Ranolazine Plasma Concentration, Peak, mean (SD)): 1880 ng/mL | concentration at 8 h ([1]; 400 mg, All Patients, IR 400 mg bid, read-out: Ranolazine Plasma Concentration, Trough, mean (SD)): 235 ng/mL | concentration at 1 h ([1]; 400 mg, All Patients, IR 400 mg tid, read-out: Ranolazine Plasma Concentration, Peak, mean (SD)): 2130 ng/mL | concentration at 8 h ([1]; 400 mg, All Patients, IR 400 mg tid, read-out: Ranolazine Plasma Concentration, Trough, mean (SD)): 514 ng/mL | concentration at 8 h ([1]; across the 3 IR dosing regimens, read-out: Mean trough ranolazine plasma concentrations): 235 to 514 ng/mL | concentration at 1 h ([1]; across the 3 IR dosing regimens, read-out: plasma mean peak concentrations, ranolazine free base): 1350 to 2130 ng/mL | concentration at 1 h ([1]; male, 267 mg, Males, IR 267 mg tid, read-out: Ranolazine Plasma Concentration, Peak, mean (SD)): 1260 ng/mL | concentration at 8 h ([1]; male, 267 mg, Males, IR 267 mg tid, read-out: Ranolazine Plasma Concentration, Trough, mean (SD)): 316 ng/mL | concentration at 1 h ([1]; male, 400 mg, Males, IR 400 mg bid, read-out: Ranolazine Plasma Concentration, Peak, mean (SD)): 1760 ng/mL | concentration at 8 h ([1]; male, 400 mg, Males, IR 400 mg bid, read-out: Ranolazine Plasma Concentration, Trough, mean (SD)): 235 ng/mL | concentration at 1 h ([1]; male, 400 mg, Males, IR 400 mg tid, read-out: Ranolazine Plasma Concentration, Peak, mean (SD)): 1920 ng/mL | concentration at 8 h ([1]; male, 400 mg, Males, IR 400 mg tid, read-out: Ranolazine Plasma Concentration, Trough, mean (SD)): 518 ng/mL | Time to 1 mm ST Depression ([2]; SR 500 mg bid, peak): 479 s | Time to Angina ([2]; SR 500 mg bid, peak): 452 s | Exercise Duration ([2]; SR 500 mg bid, peak (4 hr after dosing)): 532 s | Time to 1 mm ST Depression ([2]; SR 500 mg bid, trough): 470 s | Time to Angina ([2]; SR 500 mg bid, trough): 437 s | Exercise Duration ([2]; SR 500 mg bid, trough (12 hr after dosing)): 533 s | Time to 1 mm ST Depression ([2]; SR 1000 mg bid, peak): 502 s | Time to Angina ([2]; SR 1000 mg bid, peak): 474 s | Exercise Duration ([2]; SR 1000 mg bid, peak (4 hr after dosing)): 555 s | Time to 1 mm ST Depression ([2]; SR 1000 mg bid, trough): 491 s | Time to Angina ([2]; SR 1000 mg bid, trough): 457 s | Exercise Duration ([2]; SR 1000 mg bid, trough (12 hr after dosing)): 545 s | Time to 1 mm ST Depression ([2]; SR 1500 mg bid, peak): 508 s | Time to Angina ([2]; SR 1500 mg bid, peak): 487 s | Exercise Duration ([2]; SR 1500 mg bid, peak (4 hr after dosing)): 561 s | Time to 1 mm ST Depression ([2]; SR 1500 mg bid, trough): 514 s | Time to Angina ([2]; SR 1500 mg bid, trough): 472 s | Exercise Duration ([2]; SR 1500 mg bid, trough (12 hr after dosing)): 559 s | LS mean ED ([3]; HF n=29, 500 mg bid, peak): 518 s | LS mean ED ([3]; HF n=29, 500 mg bid, trough): 512 s | LS mean ED ([3]; HF n=29, 1000 mg bid, peak): 520 s | LS mean ED ([3]; HF n=29, 1000 mg bid, trough): 514 s | LS mean ED ([3]; HF n=29, 1500 mg bid, peak): 545 s | LS mean ED ([3]; HF n=29, 1500 mg bid, trough): 524 s | LS mean ED ([3]; No HF n=146, 500 mg bid, peak): 538 s | LS mean ED ([3]; No HF n=146, 500 mg bid, trough): 539 s | LS mean ED ([3]; No HF n=146, 1000 mg bid, peak): 563 s | LS mean ED ([3]; No HF n=146, 1000 mg bid, trough): 551 s | LS mean ED ([3]; No HF n=146, 1500 mg bid, peak): 564 s | LS mean ED ([3]; No HF n=146, 1500 mg bid, trough): 563 s | USP Solubility Class ([4]; Solution pH 4.81): Freely soluble | USP Solubility Class ([4]; Solution pH 4.89): Soluble | USP Solubility Class ([4]; Solution pH 4.90): Soluble | USP Solubility Class ([4]; Solution pH 5.04): Soluble | USP Solubility Class ([4]; Solution pH 5.35): Sparingly soluble | USP Solubility Class ([4]; Solution pH 5.82): Slightly soluble | USP Solubility Class ([4]; Solution pH 6.46): Slightly soluble | USP Solubility Class ([4]; Solution pH 6.73): Very slightly soluble | USP Solubility Class ([4]; Solution pH 7.08): Very slightly soluble | USP Solubility Class [4, 6]: Very slightly soluble | solubility [4, 6]: 240 µg/mL (≈ 0.561 mM) | USP Solubility Class ([4]; Solution pH 7.73): Very slightly soluble | USP Solubility Class ([4]; Solution pH 12.66): Very slightly soluble | solubility ([4]; aqueous solution, aqueous buffer, Solution pH 4.81): 161000 µg/mL (≈ 377 mM) | solubility ([4]; aqueous solution, aqueous buffer, Solution pH 4.89): 73800 µg/mL (≈ 173 mM) | solubility ([4]; aqueous solution, aqueous buffer, Solution pH 5.04): 49400 µg/mL (≈ 116 mM) | solubility ([4]; aqueous solution, aqueous buffer, Solution pH 5.35): 16700 µg/mL (≈ 39.1 mM) | solubility ([4]; aqueous solution, aqueous buffer, Solution pH 5.82): 5480 µg/mL (≈ 12.8 mM) | solubility ([4]; aqueous solution, aqueous buffer, Solution pH 6.46): 1630 µg/mL (≈ 3.81 mM) | solubility ([4]; aqueous solution, aqueous buffer, Solution pH 6.73): 830 µg/mL (≈ 1.94 mM) | solubility ([4]; aqueous solution, aqueous buffer, Solution pH 7.08): 390 µg/mL (≈ 0.912 mM) | solubility ([4]; aqueous solution, aqueous buffer, Solution pH 7.73): 170 µg/mL (≈ 0.398 mM) | solubility ([4]; aqueous solution, aqueous buffer, Solution pH 12.66): 180 µg/mL (≈ 0.421 mM) | solubility ([4]; aqueous solution, pH 4.9, aqueous buffer, Solution pH 4.90): 76400 µg/mL (≈ 179 mM) | blood glucose concentrations, lipid values or liver function tests ([5]; IR dosing regimens): no clinically significant changes | ECG intervals or complex morphology ([5]; IR dosing regimens vs placebo): no drug-related changes | tolerability ([5]; over the plasma concentrations achieved in the study): well tolerated
